Measured values reported in patent US20230225999A1, “A NUTRITIONAL COMPOSITION COMPRISING 3-HYDROXYBUTYRIC ACID TO IMPROVE THE GASTROINTESTINAL BARRIER” (priority 2020, published 2023).

System: co-culture cell-line model of intestinal epithelial cells containing Caco-2 and HT29-MTX cells
Test: Direct effect of 3-hydroxybutyric acid on inflammation-induced epithelial barrier dysfunction (FD4 translocation)
Format: cell-based, human
Settings: 10 μM apical, 36 hours pre-treatment, then TNF-α (2.5 ng/ml) and IFN-γ (10 ng/ml) for 48 hours
Description: The human Caco-2 and HT29-MTX cell lines were obtained from the American Type Culture Collection (ATCC) and the European Collection of Authenticated Cell Cultures (ECACC), respectively. Caco-2 cell and HT29-MTX were maintained separately in culture flasks at 37° C. under humidified 10% CO2 atmosphere in Dulbecco's […] (DMEM) supplemented with GlutaMAX (Invitrogen), 1% […], 100 μg/ml streptomycin, 100 UI/ml penicillin and heat inactivated fetal bovine serum (FBS; 15% for Caco-2 and 10% for HT29-MTX). To make co-culture for epithelial barrier studies, each cell lines were expanded in their respective flasks until 90% confluent monolayers were reached. Cell lines are then trypsinized with 1× trypsin. Co-culture of Caco-2 and HT29-MTX were seeded at 6×10^4/cm^2 on 1.12 cm^2 Transwell Polycarbonate semi-permeable membranes (0.4 μm) and grown in DMEM supplemented with GlutaMAX, 1% minimum essential media, 100 μg/ml streptomycin, 100 UI/ml penicillin and 10% heat inactivated FBS for 21 days. […] At the end of the experiment, translocation of the FITC-labeled dextran (4000 Da) from the apical to basolateral compartment was quantified within a 2-hour period. FD4 translocation data were analysed by using the two-sided two-sample Student t-test assuming unequal variances.

**Q.** With `CC(O)CC(=O)O` (stereo not shown) [3-hydroxybutyric acid] as the compound, how does the “Epithelial barrier intactness: translocation of FITC-labeled dextran (FD4) from apical to basolateral compartment relative to control +ve (FIG. 6)” value read?
**A.** protect the barrier against inflammation-induced epithelial barrier hyperpermeability
